According to ChEMBL document CHEMBL1201862, “PubChem BioAssay data set” (2004):
The source made the active and inactive calls.

Tests used:
[1] = tested on: Escherichia coli; test: microbe, parasite or virus in culture
[2] = biological target: T1, Rac GTPase-activating protein 1 (Homo sapiens, UniProt Q9H0H5); test: MgcRacGAP GTPase-activating activity inhibitors, confirmation, biochemical, ADP Hunter fluorescence, primary and confirmatory (AID 624330); format: functional
T1 sequence (Q9H0H5 whole entry): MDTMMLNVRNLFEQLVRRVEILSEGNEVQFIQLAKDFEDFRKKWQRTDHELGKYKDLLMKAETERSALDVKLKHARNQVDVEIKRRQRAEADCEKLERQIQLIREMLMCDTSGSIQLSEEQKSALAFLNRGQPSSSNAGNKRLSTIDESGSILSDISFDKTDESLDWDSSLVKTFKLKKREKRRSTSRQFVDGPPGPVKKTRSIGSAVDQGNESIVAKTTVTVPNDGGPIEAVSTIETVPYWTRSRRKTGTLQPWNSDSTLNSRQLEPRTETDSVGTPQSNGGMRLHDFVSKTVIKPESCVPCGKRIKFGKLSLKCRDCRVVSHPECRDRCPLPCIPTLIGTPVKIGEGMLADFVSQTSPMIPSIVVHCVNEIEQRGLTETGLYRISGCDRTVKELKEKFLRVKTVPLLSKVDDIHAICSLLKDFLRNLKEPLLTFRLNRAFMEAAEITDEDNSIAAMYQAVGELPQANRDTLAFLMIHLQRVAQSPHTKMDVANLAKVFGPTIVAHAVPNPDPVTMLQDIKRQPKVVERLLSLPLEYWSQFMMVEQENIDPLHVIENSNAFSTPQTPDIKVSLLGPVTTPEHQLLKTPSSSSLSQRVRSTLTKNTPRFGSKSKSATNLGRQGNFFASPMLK

[3] = biological target: T2, Cytochrome P450 2C9 (Homo sapiens, UniProt P11712)
[4] = tested on: A-375; test: MITF: Counter assay: A375 proliferation Measured in Cell-Based System Using Plate Reader - 2084-03_Inhibitor_Dose_DryPowder_Activity. [Related pubchem assays (depositor defined):AID488944]; format: functional; conditions: Homo sapiens
[5] = tested on: A-375; test: A375 melanoma cell viability reduction, dose response, counter-screen for MITF modulator project, cherry-pick samples, set 2 (AID 540335); format: functional, cell-based; conditions: Homo sapiens
[6] = biological target: Genome polyprotein (dengue virus type 2, UniProt P29990); test: Dengue-2 NS5 methyltransferase inhibitors, primary screen, biochemical, confirmation dose response (AID 588689); format: functional
[7] = biological target: T3, Voltage-gated N-type calcium channel alpha-1B subunit/Amyloid beta A4 precursor protein-binding family A member 1 (Homo sapiens, UniProt Q00975+Q02410); format: protein assay
[8] = biological target: T3, Voltage-gated N-type calcium channel alpha-1B subunit/Amyloid beta A4 precursor protein-binding family A member 1; format: protein assay; remark: listed apart in the source
[9] = biological target: T4, Carboxy-terminal domain RNA polymerase II polypeptide A small phosphatase 1 (Homo sapiens, UniProt Q9GZU7); test: inhibitors of CTDSP1, concentration-response testing, biochemical assay, absorbance-based, actives from ultra-high-throughput screening (AID 540297); format: functional
T4 sequence (Q9GZU7 whole entry): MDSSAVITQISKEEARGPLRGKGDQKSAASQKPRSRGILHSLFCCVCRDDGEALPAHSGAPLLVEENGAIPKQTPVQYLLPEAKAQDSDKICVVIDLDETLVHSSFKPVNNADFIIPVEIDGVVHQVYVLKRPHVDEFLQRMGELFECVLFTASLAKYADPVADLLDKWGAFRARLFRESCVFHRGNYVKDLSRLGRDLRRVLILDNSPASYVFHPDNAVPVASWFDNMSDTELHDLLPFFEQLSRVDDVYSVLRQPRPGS

[10] = biological target: Induced myeloid leukemia cell differentiation protein Mcl-1 (Homo sapiens, UniProt Q07820); format: functional
[11] = biological target: T5, Hexokinase HKDC1 (Homo sapiens, UniProt Q2TB90); test: HKDC1 hexokinase inhibitors, dose response, biochemical, W721R variant (AID 504729); format: functional
T5 sequence (Q2TB90 whole entry): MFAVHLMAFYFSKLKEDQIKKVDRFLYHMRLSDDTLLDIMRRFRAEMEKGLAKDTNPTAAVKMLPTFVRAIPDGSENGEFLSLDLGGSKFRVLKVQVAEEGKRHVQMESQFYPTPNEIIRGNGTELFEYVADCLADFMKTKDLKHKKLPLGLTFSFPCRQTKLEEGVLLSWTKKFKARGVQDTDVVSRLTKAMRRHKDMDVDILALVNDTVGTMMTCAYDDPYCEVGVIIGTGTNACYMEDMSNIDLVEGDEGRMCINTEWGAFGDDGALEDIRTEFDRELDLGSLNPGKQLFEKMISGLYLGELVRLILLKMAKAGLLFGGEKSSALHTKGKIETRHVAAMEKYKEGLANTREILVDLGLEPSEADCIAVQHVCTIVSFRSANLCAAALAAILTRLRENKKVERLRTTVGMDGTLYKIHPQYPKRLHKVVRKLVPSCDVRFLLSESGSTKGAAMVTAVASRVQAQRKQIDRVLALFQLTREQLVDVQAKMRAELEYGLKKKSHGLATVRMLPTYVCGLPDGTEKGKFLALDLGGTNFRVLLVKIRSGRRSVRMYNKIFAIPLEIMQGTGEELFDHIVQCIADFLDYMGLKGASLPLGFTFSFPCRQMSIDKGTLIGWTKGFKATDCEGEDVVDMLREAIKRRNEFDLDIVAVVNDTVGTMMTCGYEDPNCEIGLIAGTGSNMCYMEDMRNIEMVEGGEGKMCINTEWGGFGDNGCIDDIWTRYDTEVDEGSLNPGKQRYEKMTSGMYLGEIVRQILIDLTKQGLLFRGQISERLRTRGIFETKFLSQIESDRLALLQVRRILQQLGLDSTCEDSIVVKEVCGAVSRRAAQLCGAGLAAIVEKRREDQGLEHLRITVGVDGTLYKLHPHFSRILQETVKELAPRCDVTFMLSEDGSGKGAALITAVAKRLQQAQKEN

[12] = biological target: T6, Coagulation factor XII (Homo sapiens, UniProt P00748); format: functional;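 further: activated factor XIIa alpha cleaving a fluorogenic AMC peptide substrate; inhibitor potency from loss of enzyme activity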
T6 sequence (P00748 whole entry): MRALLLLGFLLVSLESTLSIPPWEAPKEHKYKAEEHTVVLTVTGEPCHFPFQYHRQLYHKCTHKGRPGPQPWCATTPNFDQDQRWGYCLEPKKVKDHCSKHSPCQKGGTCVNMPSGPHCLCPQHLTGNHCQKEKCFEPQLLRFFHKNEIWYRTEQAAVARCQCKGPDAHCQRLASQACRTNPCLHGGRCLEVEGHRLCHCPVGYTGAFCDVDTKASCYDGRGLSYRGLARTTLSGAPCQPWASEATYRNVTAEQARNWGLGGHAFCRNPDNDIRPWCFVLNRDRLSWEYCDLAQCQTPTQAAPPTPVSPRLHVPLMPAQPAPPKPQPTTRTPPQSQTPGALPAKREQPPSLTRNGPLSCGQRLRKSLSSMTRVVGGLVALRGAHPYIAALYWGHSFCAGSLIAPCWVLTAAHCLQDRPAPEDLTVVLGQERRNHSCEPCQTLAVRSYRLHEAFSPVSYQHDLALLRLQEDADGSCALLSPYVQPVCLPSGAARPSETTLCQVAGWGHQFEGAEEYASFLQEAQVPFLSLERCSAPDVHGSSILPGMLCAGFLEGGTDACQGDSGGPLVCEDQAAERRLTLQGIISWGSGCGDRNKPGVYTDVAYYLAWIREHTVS

[13] = tested on: HeLa; test: HeLa cell cytotoxicity, dose response, cytotoxicity control for MITF activator project, CellTiter-Glo luminescence, cherry-pick samples (AID 540259); format: functional, cell-based; conditions: Homo sapiens
[14] = Luminescence Cell-Based Dose Retest to Confirm Inhibitors of Cancer Stem Cells. [Related pubchem assays (depositor defined):AID2717, AID2721]; format: functional; conditions: Homo sapiens
[15] = cells; format: functional
[16] = biological target: T7, Microphthalmia-associated transcription factor (Homo sapiens, UniProt O75030); test: TRPM1 promoter luciferase signal decrease, dose response, MITF inhibitor project, cell-based, SK-MEL-5, cherry-picked, set 3 (AID 493073); format: functional
T7 sequence (O75030 whole entry): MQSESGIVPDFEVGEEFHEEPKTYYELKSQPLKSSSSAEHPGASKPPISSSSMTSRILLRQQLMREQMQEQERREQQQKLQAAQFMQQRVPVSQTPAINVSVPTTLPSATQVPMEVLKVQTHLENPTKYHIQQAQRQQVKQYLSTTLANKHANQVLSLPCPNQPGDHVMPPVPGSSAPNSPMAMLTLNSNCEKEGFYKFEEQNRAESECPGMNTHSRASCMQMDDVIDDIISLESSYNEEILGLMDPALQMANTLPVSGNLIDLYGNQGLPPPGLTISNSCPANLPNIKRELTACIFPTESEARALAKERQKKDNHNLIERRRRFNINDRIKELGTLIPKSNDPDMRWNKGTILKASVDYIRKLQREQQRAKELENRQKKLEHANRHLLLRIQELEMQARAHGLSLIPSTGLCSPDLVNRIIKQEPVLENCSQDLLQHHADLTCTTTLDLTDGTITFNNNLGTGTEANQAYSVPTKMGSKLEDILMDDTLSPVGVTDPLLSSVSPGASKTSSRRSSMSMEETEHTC

[17] = Vero E6 cell cytotoxicity, dose response, cytotoxicity control for non-replicating M. tuberculosis project, secondary assay (AID 492998); format: functional, VeroE6; conditions: Vero C1008
[18] = HepG2 cell cytotoxicity, dose response, cytotoxicity control for non-replicating M. tuberculosis project (AID 489018); format: functional; conditions: Mycobacterium tuberculosis
[19] = THP-1 cell cytotoxicity, dose response, cytotoxicity control for non-replicating M. tuberculosis project (AID 489025); format: functional
[20] = biological target: Cytochrome P450 3A4 (Homo sapiens, UniProt P08684);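 further: CYP3A4 tested as one member of a cytochrome P450 panel screen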
[21] = biological target: Cytochrome P450 2C19 (Homo sapiens, UniProt P33261); test: Cytochrome panel assay with activity outcomes. Panel member name: p450-cyp2c19 Compounds with AC50 equal or less than 10 uM are considered active; format: functional; conditions: read-out: AC50
[22] = biological target: T2, Cytochrome P450 2C9; remark: listed apart in the source
[23] = cytotoxicity toward NIH3T3 fibroblasts, dose response, counter-screen, cell-based, ATP luminescence, mouse fibroblasts (AID 2010); format: functional;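 further: cells exposed to compound for about 90 hours before reading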
[24] = biological target: T8, Mannose-6-phosphate isomerase (Homo sapiens, UniProt P34949); test: human PMI inhibitors, high substrate, primary screen, biochemical, fluorescence intensity, high mannose 6-phosphate (AID 1220)
T8 sequence (P34949 whole entry): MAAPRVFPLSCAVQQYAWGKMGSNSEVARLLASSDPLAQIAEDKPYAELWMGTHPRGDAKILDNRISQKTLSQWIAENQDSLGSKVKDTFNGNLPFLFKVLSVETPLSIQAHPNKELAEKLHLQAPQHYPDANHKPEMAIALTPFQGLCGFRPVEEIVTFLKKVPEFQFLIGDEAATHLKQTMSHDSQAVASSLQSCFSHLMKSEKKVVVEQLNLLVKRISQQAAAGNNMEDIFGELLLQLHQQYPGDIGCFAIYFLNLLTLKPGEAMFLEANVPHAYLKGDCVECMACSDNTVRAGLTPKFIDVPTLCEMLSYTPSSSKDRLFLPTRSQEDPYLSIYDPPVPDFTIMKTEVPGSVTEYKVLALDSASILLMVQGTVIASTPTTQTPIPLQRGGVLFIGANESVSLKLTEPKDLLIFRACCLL

[25] = inhibitors of intracellular T. cruzi replication, confirmation, NIH3T3 host cells, beta-gal luminescence (AID 2044); format: functional, cell-based;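 further: intracellular parasites grown in NIH/3T3 mouse fibroblasts as host cells; luminescent beta-galactosidase reporter signal from transgenic T. cruzi replicating inside host cells; inhibitors lower the luminescence signal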

Chain of Cytochrome P450 3A4 (P08684 whole entry): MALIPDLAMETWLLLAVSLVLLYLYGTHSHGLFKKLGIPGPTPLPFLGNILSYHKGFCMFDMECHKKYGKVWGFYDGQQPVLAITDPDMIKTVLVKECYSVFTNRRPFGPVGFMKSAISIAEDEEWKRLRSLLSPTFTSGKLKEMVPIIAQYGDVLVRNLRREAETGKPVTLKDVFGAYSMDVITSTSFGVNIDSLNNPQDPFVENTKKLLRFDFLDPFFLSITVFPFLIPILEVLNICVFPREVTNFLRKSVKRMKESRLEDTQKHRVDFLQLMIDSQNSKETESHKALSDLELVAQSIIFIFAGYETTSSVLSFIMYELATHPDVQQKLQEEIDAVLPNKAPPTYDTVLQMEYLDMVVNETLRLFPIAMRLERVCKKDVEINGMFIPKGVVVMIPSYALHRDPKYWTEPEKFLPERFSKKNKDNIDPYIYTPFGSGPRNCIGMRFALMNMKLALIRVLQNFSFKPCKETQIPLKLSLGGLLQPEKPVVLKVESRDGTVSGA
T3 sequence (Q00975 whole entry): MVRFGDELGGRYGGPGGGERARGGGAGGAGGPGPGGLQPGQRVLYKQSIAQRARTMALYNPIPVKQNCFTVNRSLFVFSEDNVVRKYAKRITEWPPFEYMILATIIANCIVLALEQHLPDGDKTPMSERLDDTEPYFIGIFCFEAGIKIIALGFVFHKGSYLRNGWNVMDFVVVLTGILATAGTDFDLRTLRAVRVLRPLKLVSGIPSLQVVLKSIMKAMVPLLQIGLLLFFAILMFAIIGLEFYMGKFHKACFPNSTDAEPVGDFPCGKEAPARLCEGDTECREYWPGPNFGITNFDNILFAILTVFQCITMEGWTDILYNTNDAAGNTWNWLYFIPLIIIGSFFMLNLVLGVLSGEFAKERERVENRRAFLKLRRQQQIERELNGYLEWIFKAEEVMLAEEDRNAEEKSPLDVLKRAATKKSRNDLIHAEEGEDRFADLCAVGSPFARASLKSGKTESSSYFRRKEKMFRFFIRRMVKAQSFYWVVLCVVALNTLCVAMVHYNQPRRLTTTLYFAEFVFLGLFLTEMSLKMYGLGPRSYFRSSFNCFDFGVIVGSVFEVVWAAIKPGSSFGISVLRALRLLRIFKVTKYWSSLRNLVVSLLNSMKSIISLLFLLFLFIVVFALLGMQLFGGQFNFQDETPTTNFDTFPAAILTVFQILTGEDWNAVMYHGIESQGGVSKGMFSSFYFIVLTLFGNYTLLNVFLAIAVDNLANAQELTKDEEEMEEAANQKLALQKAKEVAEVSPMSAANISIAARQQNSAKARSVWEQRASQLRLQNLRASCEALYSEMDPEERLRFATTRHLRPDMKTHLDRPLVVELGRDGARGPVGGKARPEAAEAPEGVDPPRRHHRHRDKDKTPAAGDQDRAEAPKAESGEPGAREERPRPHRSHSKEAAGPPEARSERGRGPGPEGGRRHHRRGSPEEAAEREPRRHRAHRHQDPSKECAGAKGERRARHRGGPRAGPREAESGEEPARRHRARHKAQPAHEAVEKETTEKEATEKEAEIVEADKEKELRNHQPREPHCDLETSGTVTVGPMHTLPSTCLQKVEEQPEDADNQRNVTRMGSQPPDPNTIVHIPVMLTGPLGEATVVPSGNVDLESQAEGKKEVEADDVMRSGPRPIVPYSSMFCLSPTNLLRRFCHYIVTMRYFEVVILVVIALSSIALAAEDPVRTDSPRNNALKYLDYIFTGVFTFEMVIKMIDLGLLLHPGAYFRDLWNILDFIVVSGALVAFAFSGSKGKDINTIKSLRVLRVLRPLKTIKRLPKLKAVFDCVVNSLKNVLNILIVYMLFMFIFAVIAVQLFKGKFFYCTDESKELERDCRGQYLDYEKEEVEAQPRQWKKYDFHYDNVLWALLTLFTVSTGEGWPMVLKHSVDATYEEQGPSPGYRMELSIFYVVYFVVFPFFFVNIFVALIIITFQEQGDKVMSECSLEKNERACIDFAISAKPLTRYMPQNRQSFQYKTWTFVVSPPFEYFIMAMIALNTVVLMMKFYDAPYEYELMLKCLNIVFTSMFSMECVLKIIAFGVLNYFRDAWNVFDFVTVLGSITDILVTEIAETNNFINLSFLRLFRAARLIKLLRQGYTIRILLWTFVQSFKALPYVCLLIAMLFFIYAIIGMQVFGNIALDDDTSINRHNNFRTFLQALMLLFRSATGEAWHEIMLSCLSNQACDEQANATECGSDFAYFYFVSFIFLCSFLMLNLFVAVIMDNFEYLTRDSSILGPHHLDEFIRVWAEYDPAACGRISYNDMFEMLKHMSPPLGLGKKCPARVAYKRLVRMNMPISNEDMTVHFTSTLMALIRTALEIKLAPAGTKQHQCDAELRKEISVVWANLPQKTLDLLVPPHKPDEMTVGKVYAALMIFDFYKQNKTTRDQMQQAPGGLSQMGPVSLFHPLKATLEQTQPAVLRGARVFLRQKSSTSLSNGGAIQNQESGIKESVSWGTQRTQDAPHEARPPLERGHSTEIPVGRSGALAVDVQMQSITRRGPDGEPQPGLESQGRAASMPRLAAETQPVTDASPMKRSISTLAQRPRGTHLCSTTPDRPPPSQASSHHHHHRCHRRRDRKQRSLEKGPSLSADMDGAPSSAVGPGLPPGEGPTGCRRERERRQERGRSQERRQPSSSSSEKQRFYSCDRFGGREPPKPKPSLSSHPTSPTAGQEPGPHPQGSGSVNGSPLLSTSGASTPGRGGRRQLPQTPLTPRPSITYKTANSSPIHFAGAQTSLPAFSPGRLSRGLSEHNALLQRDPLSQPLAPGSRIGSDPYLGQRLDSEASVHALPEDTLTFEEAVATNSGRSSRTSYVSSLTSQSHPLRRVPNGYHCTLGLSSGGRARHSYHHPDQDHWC
T3 sequence (Q02410 whole entry): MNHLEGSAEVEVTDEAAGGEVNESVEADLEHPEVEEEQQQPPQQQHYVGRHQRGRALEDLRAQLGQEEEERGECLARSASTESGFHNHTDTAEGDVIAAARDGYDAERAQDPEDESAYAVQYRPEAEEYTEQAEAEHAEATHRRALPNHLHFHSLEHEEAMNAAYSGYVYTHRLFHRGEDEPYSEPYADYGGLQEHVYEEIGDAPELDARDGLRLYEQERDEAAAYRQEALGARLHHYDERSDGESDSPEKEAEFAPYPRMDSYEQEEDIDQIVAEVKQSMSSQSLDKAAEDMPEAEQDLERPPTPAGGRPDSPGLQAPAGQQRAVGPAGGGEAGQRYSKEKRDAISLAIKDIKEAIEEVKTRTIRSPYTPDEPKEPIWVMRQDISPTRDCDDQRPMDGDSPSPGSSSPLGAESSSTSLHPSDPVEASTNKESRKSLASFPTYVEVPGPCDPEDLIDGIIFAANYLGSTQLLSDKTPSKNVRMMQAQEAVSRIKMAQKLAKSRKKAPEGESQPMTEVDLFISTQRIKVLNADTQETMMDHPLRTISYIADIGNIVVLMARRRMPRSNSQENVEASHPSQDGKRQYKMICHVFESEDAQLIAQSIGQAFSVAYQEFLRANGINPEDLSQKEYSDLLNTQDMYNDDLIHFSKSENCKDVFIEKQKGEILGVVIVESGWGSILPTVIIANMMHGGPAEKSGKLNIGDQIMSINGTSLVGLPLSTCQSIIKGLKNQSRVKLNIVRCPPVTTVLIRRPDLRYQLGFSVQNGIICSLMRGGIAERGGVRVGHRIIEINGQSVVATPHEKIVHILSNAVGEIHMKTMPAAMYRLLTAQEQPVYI
T2 sequence (P11712 whole entry): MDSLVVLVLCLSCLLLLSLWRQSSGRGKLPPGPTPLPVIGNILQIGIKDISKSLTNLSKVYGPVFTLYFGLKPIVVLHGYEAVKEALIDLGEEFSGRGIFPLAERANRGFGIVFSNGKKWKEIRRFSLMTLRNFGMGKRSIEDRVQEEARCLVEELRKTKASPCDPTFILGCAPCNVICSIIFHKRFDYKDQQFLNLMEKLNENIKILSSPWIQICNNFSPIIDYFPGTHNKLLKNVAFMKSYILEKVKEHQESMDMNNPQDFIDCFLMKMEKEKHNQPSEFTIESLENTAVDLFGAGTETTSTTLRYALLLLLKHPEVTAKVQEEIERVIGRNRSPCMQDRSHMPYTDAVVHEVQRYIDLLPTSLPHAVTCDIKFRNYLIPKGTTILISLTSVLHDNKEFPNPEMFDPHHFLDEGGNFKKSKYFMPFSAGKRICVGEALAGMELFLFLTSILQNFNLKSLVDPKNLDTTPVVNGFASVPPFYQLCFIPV
Chain of Induced myeloid leukemia cell differentiation protein Mcl-1 (Q07820 whole entry): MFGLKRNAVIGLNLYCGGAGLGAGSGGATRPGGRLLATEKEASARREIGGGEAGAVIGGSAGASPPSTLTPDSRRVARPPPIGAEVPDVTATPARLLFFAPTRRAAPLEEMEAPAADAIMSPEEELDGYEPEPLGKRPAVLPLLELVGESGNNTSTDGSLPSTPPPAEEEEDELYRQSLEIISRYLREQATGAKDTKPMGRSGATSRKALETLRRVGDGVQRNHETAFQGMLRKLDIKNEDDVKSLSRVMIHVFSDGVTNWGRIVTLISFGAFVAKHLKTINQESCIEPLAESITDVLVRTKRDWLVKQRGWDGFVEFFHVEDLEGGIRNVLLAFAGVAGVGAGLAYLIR
Chain of Cytochrome P450 2C19 (P33261 whole entry): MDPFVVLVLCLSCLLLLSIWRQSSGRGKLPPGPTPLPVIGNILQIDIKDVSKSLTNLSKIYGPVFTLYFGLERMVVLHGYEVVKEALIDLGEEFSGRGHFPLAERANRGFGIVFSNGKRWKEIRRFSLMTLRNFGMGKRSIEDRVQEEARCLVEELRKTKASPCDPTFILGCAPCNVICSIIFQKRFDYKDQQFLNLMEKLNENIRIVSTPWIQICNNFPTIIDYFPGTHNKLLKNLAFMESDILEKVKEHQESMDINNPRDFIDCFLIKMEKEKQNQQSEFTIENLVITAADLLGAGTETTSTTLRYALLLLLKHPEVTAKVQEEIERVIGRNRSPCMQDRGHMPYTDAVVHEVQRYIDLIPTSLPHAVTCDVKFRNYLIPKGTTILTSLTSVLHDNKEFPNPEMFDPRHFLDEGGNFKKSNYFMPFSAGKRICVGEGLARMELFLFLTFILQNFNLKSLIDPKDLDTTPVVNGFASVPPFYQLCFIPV

CC(C)C(=O)Nc1ccc(Nc2ccccc2)cc1
AC50 [1]: 29.9 µM (active) | IC50 [2]: 51.1 µM (active)

O=C(NCC1CCCO1)c1cc(-c2ccc(Cl)cc2Cl)on1 (centres undefined)
AC50 [3]: inconclusive | AC50 [4]: > 11 µM (active) | AC50 [5]: > 11 µM (active)

CCC1=NN2C(=N)/C(=C\c3ccc(OCc4cc(=O)n5nc(CC)sc5n4)c(OC)c3)C(=O)N=C2S1
IC50 [6]: 61.9 µM (active) | IC50 [7]: > 56.8 µM (not active) | IC50 [8]: > 50 µM (inactive) | IC50 [9]: 5.99 µM (active) | IC50 [10]: 2.95 µM (active) | IC50 [11]: 41.1 µM (inactive)

O=C(O)c1ccc(NCc2nc3ccccc3n2Cc2ccccc2)cc1
IC50 [12]: > 50 µM (inactive)

Cc1ccc2c(Cl)c(C(=O)Nc3cccnc3)sc2c1
AC50 [13]: 46.7 µM (active)

CC1CCCC(NCC(O)COC(c2ccc(F)cc2)c2ccc(F)cc2)C1C (centres undefined)
AC50 [14]: 6.35 µM (active) | IC50 [15]: 11.4 µM (active) | AC50 [16]: 10.8 µM (active) | CC50 [17]: > 20 µM (active) | CC50 [18]: 16.1 µM (active) | AC50 [5]: 20.2 µM (active) | CC50 [19]: 15.8 µM (active)

Cc1cnc(CNc2cc(-c3ccccc3Cl)ncn2)cn1
AC50 [20]: inconclusive

CCN(c1ccccc1)S(=O)(=O)c1ccc(C(=O)Nc2nnc(COC)o2)cc1
IC50 [12]: > 50 µM (inactive)

CC(C)c1ccc(OCC(=O)N2CCN(C)CC2)c(Br)c1
AC50 [1]: 57.9 µM (active)

CCCC(=O)Nc1nc2nc(-c3ccccc3)cc(-c3ccccc3)n2n1
AC50 [21]: 11.2 µM (inconclusive) | AC50 [22]: 0.0112 µM (inconclusive) | AC50 [20]: inconclusive

CC(=O)/N=C(\N)Nc1nc2cc(C)ccc2o1
AC50 [4]: > 35 µM (active) | AC50 [5]: > 35 µM (active)

CCO/C(O)=C(/C)C1=NC(C)(C)Cc2ccccc21
EC50 [23]: > 60 µM (not active) | IC50 [12]: > 50 µM (inactive) | IC50 [24]: 37.9 µM (active) | EC50 [25]: 10.7 µM (active)

C/C(=N\Nc1ccccn1)c1ccc(C(C)C)cc1
AC50 [13]: 46.7 µM (active)

COc1cccc(-c2cc(O)c3cc(NC(C)=O)ccc3n2)c1
AC50 [1]: 28.2 µM (active)
